Laboratory results as given in the NIST ThermoML archive (doi:10.1021/je800658v).
Numbers after ± are expanded uncertainties.

Experiment: activity coefficient (dimensionless); of the first substance listed, at infinite dilution; xn = mol fraction of the nth substance listed
Settings: Liquid, x1 = 0
[1] = 303.35 K, inverse gas chromatography
[2] = 312.55 K, inverse gas chromatography
[3] = 322.55 K, inverse gas chromatography
[4] = 332.55 K, inverse gas chromatography

| SMILES | activity coefficient [1] | activity coefficient [2] | activity coefficient [3] | activity coefficient [4] | activity coefficient (303.35 K, Chromatography) | activity coefficient (312.55 K, Chromatography) | activity coefficient (322.55 K, Chromatography) | activity coefficient (332.55 K, Chromatography) |
| --- | --- | --- | --- | --- | --- | --- | --- | --- |
| Cc1ccccc1C [1,2-dimethylbenzene] + CCCCn1cc[n+](C)c1.F[B-](F)(F)F | 6.53 ± 0.39 | 5.55 ± 0.33 | 5.83 ± 0.35 | 4.77 ± 0.29 |  |  |  |  |
| Cc1cccc(C)c1 [1,3-dimethylbenzene] + CCCCn1cc[n+](C)c1.F[B-](F)(F)F | 7.81 ± 0.47 | 7.4 ± 0.44 | 6.89 ± 0.41 | 6.56 ± 0.39 |  |  |  |  |
| Cc1ccc(C)cc1 [1,4-dimethylbenzene] + CCCCn1cc[n+](C)c1.F[B-](F)(F)F | 7.36 ± 0.44 | 6.68 ± 0.4 | 6.71 ± 0.4 | 6.26 ± 0.38 |  |  |  |  |
| C1COCCO1 [1,4-dioxane] + CCCCn1cc[n+](C)c1.F[B-](F)(F)F | 1.26 ± 0.08 | 1.24 ± 0.07 | 1.28 ± 0.08 | 1.22 ± 0.07 |  |  |  |  |
| C#CCCCCC [1-heptyne] + CCCCn1cc[n+](C)c1.F[B-](F)(F)F | 13.2 ± 0.79 | 12.5 ± 0.75 | 11.9 ± 0.72 | 11.7 ± 0.7 |  |  |  |  |
| C#CCCCC [1-hexyne] + CCCCn1cc[n+](C)c1.F[B-](F)(F)F | 8.29 ± 0.5 | 7.53 ± 0.45 | 7.47 ± 0.45 | 6.82 ± 0.41 |  |  |  |  |
| CCC[N+](=O)[O-] [1-nitropropane] + CCCCn1cc[n+](C)c1.F[B-](F)(F)F | 1.54 ± 0.09 | 1.46 ± 0.09 | 1.46 ± 0.09 | 1.5 ± 0.09 |  |  |  |  |
| OCC(F)(F)F [2,2,2-trifluoroethanol] + CCCCn1cc[n+](C)c1.F[B-](F)(F)F | 0.36 ± 0.02 | 0.33 ± 0.02 | 0.32 ± 0.02 | 0.3 ± 0.02 |  |  |  |  |
| CC(C)CC(C)(C)C [2,2,4-trimethylpentane] + CCCCn1cc[n+](C)c1.F[B-](F)(F)F | 321 ± 19 | 231 ± 14 | 198 ± 12 | 272 ± 16 |  |  |  |  |
| CC(C)CO [2-methyl-1-propanol] + CCCCn1cc[n+](C)c1.F[B-](F)(F)F | 4.17 ± 0.25 | 3.99 ± 0.24 | 3.28 ± 0.2 | 2.84 ± 0.17 |  |  |  |  |
| CCC(C)CC [3-methylpentane] + CCCCn1cc[n+](C)c1.F[B-](F)(F)F | 126 ± 7.6 | 94.3 ± 5.7 | 82.9 ± 5 | 152 ± 9.2 |  |  |  |  |
| CC#N [acetonitrile] + CCCCn1cc[n+](C)c1.F[B-](F)(F)F | 0.65 ± 0.04 | 0.63 ± 0.04 | 0.64 ± 0.04 | 0.61 ± 0.04 |  |  |  |  |
| c1ccccc1 [benzene] + CCCCn1cc[n+](C)c1.F[B-](F)(F)F | 2.2 ± 0.13 | 2.17 ± 0.13 | 2.25 ± 0.14 | 2.16 ± 0.13 |  |  |  |  |
| CCCCO [butan-1-ol] + CCCCn1cc[n+](C)c1.F[B-](F)(F)F | 4.74 ± 0.29 | 3.82 ± 0.23 | 3.33 ± 0.2 | 2.69 ± 0.16 |  |  |  |  |
| CCCC=O [butanal] + CCCCn1cc[n+](C)c1.F[B-](F)(F)F | 2.19 ± 0.13 | 2.13 ± 0.13 | 2.15 ± 0.13 | 2.06 ± 0.12 |  |  |  |  |
| CCC(C)=O [butanone] + CCCCn1cc[n+](C)c1.F[B-](F)(F)F | 1.5 ± 0.09 | 1.48 ± 0.09 | 1.44 ± 0.09 | 1.25 ± 0.08 |  |  |  |  |
| C1CCCCCC1 [cycloheptane] + CCCCn1cc[n+](C)c1.F[B-](F)(F)F | 78.7 ± 4.7 | 98.2 ± 5.9 | 131 ± 7.9 | 167 ± 10 |  |  |  |  |
| C1CCCCC1 [cyclohexane] + CCCCn1cc[n+](C)c1.F[B-](F)(F)F | 62.5 ± 3.8 | 48.4 ± 2.9 | 42.7 ± 2.6 | 35.3 ± 2.1 |  |  |  |  |
| ClCCl [dichloromethane] + CCCCn1cc[n+](C)c1.F[B-](F)(F)F | 0.69 ± 0.04 | 0.72 ± 0.04 | 0.79 ± 0.05 | 0.79 ± 0.05 |  |  |  |  |
| CCOCC [diethyl ether] + CCCCn1cc[n+](C)c1.F[B-](F)(F)F | 10.2 ± 0.61 | 9.39 ± 0.56 | 8.18 ± 0.49 | 7.42 ± 0.45 |  |  |  |  |
| CC(C)OC(C)C [diisopropyl ether] + CCCCn1cc[n+](C)c1.F[B-](F)(F)F | 30.7 ± 1.8 | 33.5 ± 2 | 26.9 ± 1.6 | 24.3 ± 1.5 |  |  |  |  |
| CCO [ethanol] + CCCCn1cc[n+](C)c1.F[B-](F)(F)F | 2.15 ± 0.13 | 1.91 ± 0.11 | 1.7 ± 0.1 | 1.53 ± 0.09 |  |  |  |  |

| SMILES | activity coefficient [1] | activity coefficient [2] | activity coefficient [3] | activity coefficient [4] | activity coefficient (303.35 K, Chromatography) | activity coefficient (312.55 K, Chromatography) | activity coefficient (322.55 K, Chromatography) | activity coefficient (332.55 K, Chromatography) |
| --- | --- | --- | --- | --- | --- | --- | --- | --- |
| CCc1ccccc1 [ethylbenzene] + CCCCn1cc[n+](C)c1.F[B-](F)(F)F | 7.25 ± 0.44 | 6.73 ± 0.4 | 6.85 ± 0.41 | 6.51 ± 0.39 |  |  |  |  |
| CCCCCCC [heptane] + CCCCn1cc[n+](C)c1.F[B-](F)(F)F | 259 ± 16 | 250 ± 15 | 216 ± 13 | 142 ± 8.7 |  |  |  |  |
| C=CCCCC [hex-1-ene] + CCCCn1cc[n+](C)c1.F[B-](F)(F)F | 48 ± 2.9 | 39.3 ± 2.4 | 36.3 ± 2.2 | 38.8 ± 2.3 |  |  |  |  |
| CCCCCC [hexane] + CCCCn1cc[n+](C)c1.F[B-](F)(F)F |  |  |  |  | 133 ± 9.1 | 130 ± 9 | 97.4 ± 6.7 | 74.2 ± 5.1 |
| C=O [methanal] + CCCCn1cc[n+](C)c1.F[B-](F)(F)F | 0.22 ± 0.01 | 0.23 ± 0.01 | 0.26 ± 0.02 | 0.25 ± 0.02 |  |  |  |  |
| CO [methanol] + CCCCn1cc[n+](C)c1.F[B-](F)(F)F | 1.22 ± 0.07 | 1.22 ± 0.07 | 1.22 ± 0.07 | 1.18 ± 0.07 |  |  |  |  |
| CC1CCCCC1 [methylcyclohexane] + CCCCn1cc[n+](C)c1.F[B-](F)(F)F | 98.3 ± 5.9 | 82.7 ± 5 | 64.2 ± 3.9 | 57.1 ± 3.4 |  |  |  |  |
| CC1CCCC1 [methylcyclopentane] + CCCCn1cc[n+](C)c1.F[B-](F)(F)F | 62.2 ± 3.7 | 53.5 ± 3.2 | 42.8 ± 2.6 | 55.4 ± 3.3 |  |  |  |  |
| C[N+](=O)[O-] [nitromethane] + CCCCn1cc[n+](C)c1.F[B-](F)(F)F | 0.59 ± 0.04 | 0.56 ± 0.03 | 0.56 ± 0.03 | 0.56 ± 0.03 |  |  |  |  |
| CCCCCCCCC [nonane] + CCCCn1cc[n+](C)c1.F[B-](F)(F)F | 956 ± 57 | 793 ± 48 | 612 ± 37 | 464 ± 28 |  |  |  |  |
| CCCCCCCC [octane] + CCCCn1cc[n+](C)c1.F[B-](F)(F)F | 425 ± 26 | 368 ± 22 | 333 ± 20 | 298 ± 18 |  |  |  |  |
| CCCC(C)=O [pentan-2-one] + CCCCn1cc[n+](C)c1.F[B-](F)(F)F | 2.6 ± 0.16 | 2.6 ± 0.16 | 2.66 ± 0.16 | 2.53 ± 0.15 |  |  |  |  |
| CCC(=O)CC [pentan-3-one] + CCCCn1cc[n+](C)c1.F[B-](F)(F)F | 2.63 ± 0.16 | 2.57 ± 0.15 | 2.66 ± 0.16 | 2.52 ± 0.15 |  |  |  |  |
| CCCO [propan-1-ol] + CCCCn1cc[n+](C)c1.F[B-](F)(F)F | 3.12 ± 0.19 | 2.7 ± 0.16 | 2.43 ± 0.15 | 2.14 ± 0.13 |  |  |  |  |
| CC(C)O [propan-2-ol] + CCCCn1cc[n+](C)c1.F[B-](F)(F)F | 3.2 ± 0.19 | 2.76 ± 0.17 | 2.5 ± 0.15 | 2.15 ± 0.13 |  |  |  |  |
| CCC=O [propanal] + CCCCn1cc[n+](C)c1.F[B-](F)(F)F | 1.38 ± 0.08 | 1.33 ± 0.08 | 1.29 ± 0.08 | 1.21 ± 0.07 |  |  |  |  |
| c1ccncc1 [pyridine] + CCCCn1cc[n+](C)c1.F[B-](F)(F)F | 1 ± 0.06 | 0.99 ± 0.06 | 0.97 ± 0.06 | 0.94 ± 0.06 |  |  |  |  |
| ClC(Cl)(Cl)Cl [tetrachloromethane] + CCCCn1cc[n+](C)c1.F[B-](F)(F)F | 5.53 ± 0.33 | 5.44 ± 0.33 | 5.38 ± 0.32 | 5.2 ± 0.31 |  |  |  |  |
| c1ccsc1 [thiophene] + CCCCn1cc[n+](C)c1.F[B-](F)(F)F | 1.56 ± 0.09 | 1.52 ± 0.09 | 1.54 ± 0.09 | 1.49 ± 0.09 |  |  |  |  |
| Cc1ccccc1 [toluene] + CCCCn1cc[n+](C)c1.F[B-](F)(F)F | 4.37 ± 0.26 | 3.96 ± 0.24 | 3.97 ± 0.24 | 3.84 ± 0.23 |  |  |  |  |
| ClC(Cl)Cl [trichloromethane] + CCCCn1cc[n+](C)c1.F[B-](F)(F)F | 1.04 ± 0.06 | 1.04 ± 0.06 | 1.09 ± 0.07 | 1.09 ± 0.07 |  |  |  |  |
| CCN(CC)CC [triethylamine] + CCCCn1cc[n+](C)c1.F[B-](F)(F)F | 9.44 ± 0.57 | 8.9 ± 0.6 | 35.3 ± 2.2 | 59.4 ± 3.6 |  |  |  |  |
